Experimental data as given in US11466069B2, “Methods of treatment and novel constructs” (AUCKLAND UNISERVICES LIMITED, priority 2017, dated 2022).
Entries after “also recorded” stand apart in the source; their conditions may differ. Non-standard residues stand in square brackets, D forms with d. Residues, ends and D or L forms follow the SMILES beside them. No end group written: not given here.

Key:
Cx43 hemichannel [1] = target: T1, Cx43 hemichannel (Homo sapiens, UniProt P17302); details: ethidium bromide uptake, literature (6); cited from earlier work
hRMEC cells = test: Cellular uptake of FITC labelled peptides into hRMEC cells (confocal microscopy); type: cell-based, human
Method: Primary human retinal microvascular endothelial cells (hRMEC; Neuromics) were cultured and maintained in T25 flasks in EGM-2™ BulletKit™ media (Lonza) containing endothelial basal media (EBM-2; Lonza) and EGM-2 SingleQuots™ (Lonza), supplemented with 10% fetal bovine serum and 1% Antibiotic-Antimicotic (Sigma) at 37° C. with 5% CO2. VEGF was excluded from the EGM-2 media.
(§1) Peptides or control channel blockers, carbenoxolone (CBX) (Sigma) or lanthanum chloride (LaCl3; Sigma) were mixed with DMEM/F12 or EGM-2™ BulletKit™ media at appropriate concentrations and applied onto cells for 1 h at 37° C., 5% CO2. For cell uptake under hypoxic conditions, peptides were delivered in hypoxic, acidic ion-shifted Ringers (HAIR) solution (13) for 1 h at 37° C., 5% CO2. For cell uptake under hyperglycaemia and inflammation conditions peptides were delivered in hyperglycaemia and inflammation solution for 24 h at 37° C., 5% CO2. The solutions were removed and cells were washed in PBS and fixed in 4% formaldehyde PBS with nuclei were counterstained with DAPI. Coverslips were mounted in anti-fade medium (Citifluor™ AF1) and cells were visualised by confocal microscopy.

[2] = tested on: hyperglycaemic and inflamed ARPE-19 cells; test: Cellular uptake in hyperglycaemic and inflamed ARPE-19 cells; type: cell-based, human; details: ARPE-19, FITC labelled peptide, 24 h
Method: The inflammatory cytokines TNFα and Il-1β (PeproTech) were added to achieve a final concentration of 10 ng/ml each. Antibiotic-Antimycotic was added to the solution to achieve a 1% concentration. The solution was made fresh before application to cells.
as §1

gap junction = details: literature (6); cited from earlier work
ARPE-19 cells [3] = test: Cellular uptake of FITC labelled peptides into ARPE-19 cells in normal medium; type: cell-based, human; details: for concentration at which cellular uptake was detected (FITC fluorescence): normal medium, FITC labelled peptide, 1 h, 10-50 μM (Gap19 up to 100 μM)
Method: Cell culture and maintenance Unless otherwise mentioned, all cell culture reagents were purchased from Gibco® or Invitrogen™ (Life Technologies). ARPE-19 cells are from a human retinal pigment epithelium cell line purchased from American Type Culture Collection (ATCC), and were maintained in T25 flasks in DMEM/F12 (DMEM/F-12, GlutaMAX™ medium containing 10% heat inactivated foetal bovine serum (FBS), and 1% Antibiotic-Antimicotic (Sigma)) at 37° C. with 5% CO2.
as §1

hypoxic ARPE-19 cells = test: Cellular uptake in hypoxic ARPE-19 cells (HAIR solution); type: cell-based, human; details: ARPE-19, FITC labelled peptide, HAIR solution 1 h
Method: as §1

ARPE-19 cells [4] = test: MTT cytotoxicity assay; type: cell-based, human; details: ARPE-19 cells, 5, 10 or 20 μM for 1 or 24 h
Method: ARPE-19 cells were exposed to DMEM/F12 (normal medium) or HAIR solution for 1 h. XG19 was mixed in DMEM/F12 or HAIR solution and applied to ARPE-19 cells at 0, 5, 10 or 20 μM concentrations for either 1 or 24 h at 37° C., 5% CO2. After the incubation period, the solutions in each well were removed and replaced with 0.5 mg/mL, MTT (Thermo Fisher Scientific) in PBS and incubated for 4 h at 37° C. and 5% CO2. The MTT/PBS solution was then removed and replaced with HCl-isopropanol solution (0.04 M) to dissolve formed formazan. The intensity of purple colour was quantified by measuring absorbance at 570 nm with correction of interference at 650 nm (BioTek Synergy HT).

Cx43 hemichannel [5] = target: T1, Cx43 hemichannel; test: Hemichannel mediated ATP release assay (low calcium solution); type: cell-based; set-up: endogenous in cells; details: for ATP release compared to low calcium, 30 min: ARPE-19, 5 μM XG19, 100 μM Peptide5, 100 μM CBX, 30 min low calcium
Method: Peptides were applied onto cells for uptake studies as previously described. Peptide solutions were removed from the cells, which were then exposed to either low calcium (Ca^2+) solution or HAIR solution to open hemichannels or high calcium solution to close hemichannels for […] at 37° C., 5% CO2.

gap junctions = test: Lucifer Yellow dye scrape/load gap junction assay; type: cell-based, human; details: ARPE-19, scrape/load; XG19 5 μM
Method: Peptides were applied onto cells for uptake as previously mentioned. Peptide solutions were removed from the cells and the cells were exposed to 0.1% […]/PBS dye (LY). A vertical and horizontal scrape was created in the cell monolayer using a pipette tip. The cells were then incubated at room temperature for 15 min. The LY dye solution was removed, cells were washed in PBS and fixed in 4% formaldehyde PBS with nuclei counterstained with DAPI. Coverslips were mounted in anti-fade medium (Citifluor™ AF1) and slides were imaged.

Cx43 hemichannel [6] = target: T1, Cx43 hemichannel; test: Hemichannel mediated EthD-1 dye uptake assay; type: cell-based; set-up: endogenous in cells; details: ARPE-19 cells, 5 μM peptide, low calcium solution
Method: Peptides were applied onto cells for uptake as previously mentioned. Peptide solutions were removed from the cells exposed to 2 μM ethidium homodimer-1 (EthD-1) in either Hanks Buffered Salt Solution (137 mM NaCl, 5.4 mM KCl, 0.25 mM Na2HPO4, 0.1 g glucose, 0.44 mM KH2PO4, 1.0 mM MgSO4, 4.2 mM NaHCO3)+EGTA (5 mM) (low calcium solution) to open hemichannels or high calcium (Ca′) solution (Hanks Buffered Salt Solution+1.3 mM CaCl2)) for […] at 37° C., 5% CO2. The solutions were removed, cells were washed in PBS and fixed in 4% formaldehyde PBS before counterstaining nuclei with DAPI. Coverslips were mounted in anti-fade medium (Citifluor™ AF1) and slides were imaged.

T1 sequence (P17302 2-382 limits assumed): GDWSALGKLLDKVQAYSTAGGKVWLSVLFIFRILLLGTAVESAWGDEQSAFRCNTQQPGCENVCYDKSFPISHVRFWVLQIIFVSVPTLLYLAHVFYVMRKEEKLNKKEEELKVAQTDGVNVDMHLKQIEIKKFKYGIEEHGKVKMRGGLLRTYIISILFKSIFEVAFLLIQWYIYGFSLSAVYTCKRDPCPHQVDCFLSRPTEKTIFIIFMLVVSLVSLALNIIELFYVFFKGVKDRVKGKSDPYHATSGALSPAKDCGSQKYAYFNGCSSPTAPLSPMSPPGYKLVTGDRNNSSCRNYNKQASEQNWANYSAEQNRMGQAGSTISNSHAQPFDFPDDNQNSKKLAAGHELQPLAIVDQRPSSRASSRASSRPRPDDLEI

Q: With “KQIEIKKFK (listed as Homo sapiens) [Gap19]” as the compound, how does the “concentration at which efficacy improved” value (Cx43 hemichannel [1]) read?
A: 344 to 688 µM

Q: And the “concentration with no effect on Cx43 hemichannel inhibition” value (Cx43 hemichannel [1])?
A: > 172 µM

Q: And the “cellular uptake (FITC fluorescence) at 100 μM” value (hRMEC cells; 100 μM, still lower than 10 μM XG19)?
A: Some uptake was observed

Q: What about the “concentration at which cellular uptake was detected (FITC fluorescence)” value (hRMEC cells; FITC labelled peptide, 1 h, XG19 10, 20, 50 μM, Gap19 10, 20, 50, 100 μM) of the same compound?
A: > 50 µM

Q: What about the “cellular uptake in hyperglycaemia and inflammation solution vs normal media” value [2] of the same compound?
A: undetectable in either condition; also recorded: no change in uptake

Q: And the “gap junction function post uptake” value (gap junction)?
A: maintain gap junction function

Q: And the “concentration at which cellular uptake was detected (FITC fluorescence)” value (ARPE-19 cells [3]; ARPE-19 cells)?
A: > 100 µM

Q: And the “cellular uptake in hypoxic solution vs normal media” value (hypoxic ARPE-19 cells)?
A: undetectable in either condition; also recorded: no change in uptake

Q: With `CC[C@H](C)[C@H](NC(=O)[C@H](CCC(=O)O)NC(=O)[C@@H](NC(=O)[C@H](CCC(N)=O)NC(=O)[C@H](CCCCN)NC(=O)CNC(=O)CNC(=O)[C@H](NC(=O)[C@H]1CCCN1C(=O)[C@@H](CCCNC(=N)N)NC(=O)[C@@H](CC(C)C)NC(=O)[C@@H](CS)NC(=O)[C@H](N)CC(C)C)C(C)C)[C@@H](C)CC)C(=O)N[C@@H](CCCCN)C(=O)N[C@@H](CCCCN)C(=O)N[C@@H](Cc1ccccc1)C(=O)N[C@@H](CCCCN)C(=O)O` [XG19] (H-[dL][dC][dL][dR][dP][dV]GGKQIEIKKFK-OH) as the compound, how does the “cell viability (MTT) compared to untreated cells” value (ARPE-19 cells [4]) read?
A: no significant difference in cell viability

Q: Which results are given for `CC1(C)[C@@H](OC(=O)CCC(=O)O)CC[C@]2(C)[C@H]3C(=O)C=C4[C@@H]5C[C@@](C)(C(=O)O)CC[C@]5(C)CC[C@@]4(C)[C@]3(C)CC[C@@H]12` [CBX, carbenoxolone]?
A: ATP release compared to low calcium, 30 min (Cx43 hemichannel [5]): reduced ATP release; gap junction function (Lucifer Yellow dye spread to neighbouring cells) (gap junctions): the dye was not further transported to any neighbouring cells; also recorded: inhibited gap junction communication

Q: With “YGRKKRRQRRRKQIEIKKFK [TAT-Gap19, fusion peptide of TAT peptide and Gap19]” as the compound, how does the “concentration at which cells were saturated with peptide” value (ARPE-19 cells [3]; ARPE-19 cells) read?
A: 20 µM

Q: And the “cellular uptake (FITC fluorescence), dependence on concentration” value (ARPE-19 cells [3]; ARPE-19 cells, 10, 20, 50 μM)?
A: dose dependant manner

Q: What about the “overall cellular uptake compared to XG19” value (ARPE-19 cells [3]; ARPE-19 cells, 10, 20, 50 μM) of the same compound?
A: higher cell uptake than XG19

Q: And the “overall cellular uptake compared to XG19” value (ARPE-19 cells [3]; ARPE-19 cells, 10, 20, 50 μM, listed as TAT-GAP19)?
A: much greater than for XG19 at all the tested concentrations

Q: What about the “subcellular localisation of peptide after uptake” value (ARPE-19 cells [3]; ARPE-19 cells, FITC vs DAPI) of the same compound?
A: mainly accumulated into the nucleus

Q: And the “concentration at which cellular uptake was detected (FITC fluorescence)” value (ARPE-19 cells [3]; ARPE-19 cells)?
A: ≤ 10 µM

Q: Which “EthD-1 dye uptake (mean fluorescence intensity) compared to low calcium treatment” value (Cx43 hemichannel [6]) does the source give for “FITC-XG19: FITC labelled XG19 used in the cellular uptake experiments ([dL][dC][dL][dR][dP][dV]GGKQIEIKKFK; also: FITC label, site not given here)” here?
A: significant reduction of the mean fluorescence intensity; also recorded: reduced EthD-1 uptake

Q: With VDCFLSRPTEKT [PepS] as the compound, how does the “ATP release relative to CBX treated group” value (Cx43 hemichannel [5]; ARPE-19, low calcium solution) read?
A: greater than CBX

Q: What about the “ATP release compared to low calcium, 30 min” value (Cx43 hemichannel [5]) of the same compound?
A: reduced ATP release
